Drawing on patent publication US20260306640A1, “TECHNOLOGIES TARGETING CELL STATES” (Auron Therapeutics, Inc., priority 2023, published 2026), this text covers GI50, DC50 and EC90 for 6 compounds.

Assay [1] deals with MOLM-13 cells. The assay can be described thus: Cell growth inhibition, AML cell line MOLM-13 (CyQuant, day 7). The following applies: Homo sapiens. Type of assay: cell-based. An excerpt:
(§1) Among other things, provided technologies are useful for treating various diseases, disorders, or conditions. For example, in some embodiments, provided technologies are useful for treating cancer as confirmed in the present Example. […] In some embodiments, provided technologies can inhibit cell proliferation. In some embodiments, the present disclosure provides technologies for assessing various technologies, e.g., compounds, compositions, or methods. Among other things, the present Example provides technologies, e.g., cell growth inhibition assay, for assessing various technologies. […] In some embodiments, the following cell growth inhibition methods are utilized to assess provided technologies.
AML: AML cell line MOLM-13 cells were cultured in RPMI+15% FBS and were plated at 500 cells/well in 100 uL media in a U-bottom 96-well plate. Compounds were dilute to 3×final in full media and 50 uL were added to corresponding wells. Compound and media were replenished on days 2 and 5. On day 7, cells were transferred to a 96-well black bottom plate and CyQuant was performed per manufacturer's instructions.
(§2) In some assessments, for cell growth inhibition, cells, e.g., MOLM13, NCI-H1048, and LASCPC-01 cells, were counted using a hemocytometer or automated cell counting in triplicates. In some assessments, proliferation in NEPC organoids as measured with Cell Titer Glo reagent (Promega). Growth inhibition was determined relative to vehicle control.

Assay [2] deals with NCI-H1048 cells. The assay can be described thus: Cell growth inhibition, SCLC cell line NCI-H1048 (cell count, day 11). Type of assay: cell-based, human. The following applies: Homo sapiens.
Description: as §1
SCLC: SCLC cell lines NCI-H1048 and NCI-H1876 were cultured in DMEM F12 media with 5% FBS, 1% Penicillin/Streptomycin and HITES supplement (Hydrocortisone, Insulin, Transferrin, Estradiol and Sodium Selenite). NCI-H1048 cells were plated at 10,000 cells/well of a 24-well plate and NCI-H1876 cells were plated at 20,000 cells/well of a 96-well plate. Compound and media were replenished every two days out to day 11 and 10 respectively. Cells were then trypsinized and counted using either hemocytometer or an automated Countess cell counter.
as §2

Assay [3] concerns the target T1, KAT2B (Homo sapiens, UniProt Q92831). Put plainly: KAT2B degradation, Western Blot (Jess), NCI-H1048 cells. More on the design: degrader, Western blot (Jess). Type of assay: cell-based. The gist of the method:
(§3)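 DC50 came from protein loss relative to DMSO, measured by Jess capillary immunoblot of RIPA lysates with chemiluminescence read-out. Before lysis, NCI-H1048 cells in 5% FBS HITES medium were exposed to compound for 24 h at 37° C.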
On the technique in general: In western blotting, separated proteins are transferred to a membrane and probed.

The target of assay [4] is T2, KAT2A (Homo sapiens, UniProt Q92830). The assay can be described thus: KAT2A degradation, Western Blot (Jess), MOLM-13 cells. More on the design: degrader, Western blot. Type of assay: cell-based. In a few lines: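 MOLM-13 cells in RPMI 1640/20% FBS were treated with compound for 24 h at 37 °C. RIPA lysates (4 μg) were run on a capillary Western (Jess) with anti-KAT2A antibody and chemiluminescent detection. DC50 comes from percent protein reduction versus DMSO control.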

Assay [5] has as its target T2, KAT2A. Put plainly: KAT2A degradation, Western Blot (Jess), NCI-H1048 cells. Type of assay: cell-based. More on the design: degrader, Western blot (Jess). In a few lines: as §3
Assay [6] concerns the target T1, KAT2B. Put plainly: KAT2B degradation, Western Blot, MOLM-13 cells. Type of assay: cell-based. More on the design: degrader, Western blot. The following applies: MOLM-13, KAT2B. The procedure:
MOLM-13 cells were maintained at 37° C. in 5% CO2 and 90% humidity in RPMI 1640 supplemented with 20% fetal bovine serum (FBS) and 1× penicillin/streptomycin. Cells were plated in full media at 1-2 million cells/2 mL in a 6-well tissue culture treated plate with or without compounds for 24 h at 37° C. in 5% CO2.
MOLM-13 cells or NCI-H1048 cells were washed with PBS, then lysed with RIPA buffer containing 1×protease and phosphatase inhibitors (SantaCruz Biotechnologies Cat #sc-24948A). Protein was isolated by centrifugation at 12,000×g for 10 minutes at 4° C. and supernatant was collected. Protein was quantified via Bradford assay. Samples were diluted to 4 μg lysate in 16 μL RIPA buffer and then 4 μL of Jess Sample Buffer. Samples were heated at 95° C. for 5 minutes. Samples were loaded onto 12-230 kDa Jess™ Separation Module, 8×25 capillary cartridges (SM-W004, Biotechne). Antibodies loaded were: Primary antibody for KAT2A (GCN5L2 (C26A10) Rabbit mAb (3305, CST)) and for KAT2B (PCAF (C14G9)) Rabbit mAb (3378, CST) at 1:1000 and Anti-Rabbit Detection Module for Jess™ (Cat No #DM-001, Biotechne). Signal was detected by chemiluminescence.
DC50 values were determined from percent reduction of protein as compared to the DMSO control.

[7] abbreviates: 168 h, MOLM-13, day 7, CyQuant, read-out: MOLM13 GI50.
Setting [8] is: 264 h, NCI-H1048, day 11, cell count, read-out: H1048 GI50.
[9] abbreviates: NCI-H1048 cells, KAT2B, 24 h, Western Blot, vs DMSO, read-out: KAT2B NCI-H1048 DC50.
Where [10] appears, read: MOLM-13 cells, KAT2A, 24 h, Western Blot, vs DMSO, read-out: KAT2A MOLM-13 DC50.
Setting [11] is: NCI-H1048 cells, KAT2A, 24 h, Western Blot, vs DMSO, read-out: KAT2A NCI-H1048 DC50.

Where two headings read alike, the source gives them in different places. Bounds are passed on as bounds.

T2 sequence (Q92830 whole entry): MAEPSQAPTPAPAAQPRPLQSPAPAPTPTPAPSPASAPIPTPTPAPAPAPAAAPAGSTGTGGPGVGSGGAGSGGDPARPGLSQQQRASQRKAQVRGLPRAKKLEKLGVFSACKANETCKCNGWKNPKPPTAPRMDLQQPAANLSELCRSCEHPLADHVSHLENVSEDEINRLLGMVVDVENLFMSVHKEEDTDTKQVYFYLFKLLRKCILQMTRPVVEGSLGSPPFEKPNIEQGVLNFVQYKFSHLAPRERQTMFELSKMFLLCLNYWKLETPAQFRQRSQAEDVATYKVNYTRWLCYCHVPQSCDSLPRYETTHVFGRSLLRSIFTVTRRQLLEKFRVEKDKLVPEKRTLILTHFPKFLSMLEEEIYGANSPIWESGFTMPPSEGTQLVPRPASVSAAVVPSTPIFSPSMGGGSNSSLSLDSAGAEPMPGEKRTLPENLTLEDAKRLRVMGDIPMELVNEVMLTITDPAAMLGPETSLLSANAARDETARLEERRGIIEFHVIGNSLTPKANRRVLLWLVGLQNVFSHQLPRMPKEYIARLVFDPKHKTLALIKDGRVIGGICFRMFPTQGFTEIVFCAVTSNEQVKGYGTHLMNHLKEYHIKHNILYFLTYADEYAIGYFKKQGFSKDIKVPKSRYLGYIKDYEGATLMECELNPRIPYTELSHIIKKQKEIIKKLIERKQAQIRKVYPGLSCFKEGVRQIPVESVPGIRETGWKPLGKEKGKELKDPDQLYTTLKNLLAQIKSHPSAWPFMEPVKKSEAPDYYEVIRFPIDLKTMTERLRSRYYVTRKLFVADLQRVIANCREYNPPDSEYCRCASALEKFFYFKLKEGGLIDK
T1 sequence (Q92831 whole entry): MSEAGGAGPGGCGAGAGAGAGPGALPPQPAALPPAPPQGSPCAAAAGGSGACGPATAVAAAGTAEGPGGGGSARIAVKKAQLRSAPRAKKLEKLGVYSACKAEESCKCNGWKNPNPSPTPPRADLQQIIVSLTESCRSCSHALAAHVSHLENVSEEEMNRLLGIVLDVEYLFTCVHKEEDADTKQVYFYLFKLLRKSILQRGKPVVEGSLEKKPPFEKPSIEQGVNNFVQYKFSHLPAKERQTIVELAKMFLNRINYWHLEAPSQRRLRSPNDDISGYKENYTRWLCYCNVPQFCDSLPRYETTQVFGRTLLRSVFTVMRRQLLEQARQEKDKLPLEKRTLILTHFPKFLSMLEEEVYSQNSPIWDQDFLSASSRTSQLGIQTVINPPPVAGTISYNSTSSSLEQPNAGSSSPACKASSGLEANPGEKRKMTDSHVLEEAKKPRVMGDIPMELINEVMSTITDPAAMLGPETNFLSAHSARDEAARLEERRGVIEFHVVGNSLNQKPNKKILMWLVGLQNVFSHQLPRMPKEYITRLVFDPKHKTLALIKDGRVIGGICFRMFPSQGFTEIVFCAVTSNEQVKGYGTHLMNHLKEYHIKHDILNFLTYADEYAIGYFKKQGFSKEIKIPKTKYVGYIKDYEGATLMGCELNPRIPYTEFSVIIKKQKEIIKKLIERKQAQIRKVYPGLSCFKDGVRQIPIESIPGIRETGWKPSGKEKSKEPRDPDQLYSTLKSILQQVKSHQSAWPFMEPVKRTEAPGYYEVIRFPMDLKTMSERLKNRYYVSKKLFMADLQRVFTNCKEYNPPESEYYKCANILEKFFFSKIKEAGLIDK

The GI50 is the concentration at which growth is held to half of that of the control. Regarding `CN1C[C@H](Nc2cnn(C)c(=O)c2Br)C[C@H](c2ccc(C(=O)N3CCN(Cc4ccc(C(=O)Nc5ccc6c(c5)CN(C5CCC(=O)NC5=O)C6=O)cc4)CC3)cc2)C1` (stereo partly drawn) [Compound 2-15], the results for the GI50 in assay [1] (setting [7]) and in assay [2] (setting [8]) were 5.2 nM and 2 nM, respectively.
Broadly, the DC50 is the concentration at which degradation of the target reaches its halfway point. In the case of `CN1C[C@H](Nc2cnn(C)c(=O)c2Br)C[C@H](c2ccc(CN3CCC(Oc4ccc(C5CCC(=O)NC5=O)cc4)CC3)cc2)C1` (stereo partly drawn) [Compound 86], the values for the DC50 in assay [3] (setting [9]), in assay [4] (setting [10]) and in assay [5] (setting [11]) were 1 to 30 nM, below 1 nM and below 1 nM, respectively. The GI50 in assay [1] (setting [7]) worked out at 1.7 nM; in assay [2] (setting [8]), 11 nM.
Regarding `CN1C[C@H](Nc2cnn(C)c(=O)c2Br)C[C@H](c2ccc(C(=O)N3CCC4(CC3)CCN(c3ccc(C5CCC(=O)NC5=O)cc3)CC4)cc2)C1` (stereo partly drawn) [Compound 90, 3-[4-[3-[4-[(3R,5R)-5-[(5-bromo-1-methyl-6-oxo-pyridazin-4-yl)amino]-1-methyl-3-piperidyl]benzoyl]-3,9-diazaspiro[5.5]undecan-9-yl]phenyl]piperidine-2,6-dione], the DC50 in assay [3] (setting [9]), in assay [4] (setting [10]) and in assay [5] (setting [11]) was below 1 nM throughout. The 50% growth inhibitory concentration (GI50) was determined as 0.9 nM in assay [1] (setting [7]) and 1.5 nM in assay [2] (setting [8]).
Turning to `Cc1cc(N2CCC3(CCN(C(=O)c4ccc([C@H]5C[C@@H](Nc6cnn(C)c(=O)c6Br)CN(C)C5)cc4)CC3)CC2)ccc1C1CCC(=O)NC1=O` (stereo partly drawn) [Compound 167], the DC50 in assay [3] (setting [9]), in assay [4] (setting [10]) and in assay [5] (setting [11]) was below 1 nM in each case. In addition, the GI50 in assay [1] (setting [7]) came to 4.8 nM.
`COc1cc(C2CCC(=O)NC2=O)ccc1N1CCC2(CCN(C(=O)c3ccc([C@H]4C[C@@H](Nc5cnn(C)c(=O)c5Br)CN(C)C4)cc3)CC2)CC1` (stereo partly drawn) [Compound 238]: the DC50 in assay [3] (setting [9]) was 1 to 30 nM; in assay [5] (setting [11]) it was below 1 nM. Also, the concentration for 50% growth inhibition (GI50) turned out to be 20 nM in assay [1] (setting [7]) and 60 nM in assay [2] (setting [8]).
Take `CN1C[C@H](Nc2cnn(C)c(=O)c2Br)C[C@H](c2ccc(C(=O)N(C)CCCN(C)c3ccc(CCCOc4cccc5c4C(=O)N(C4CCC(=O)NC4=O)C5=O)cc3)cc2)C1` (stereo partly drawn) [Compound Ref-1, reference compound]: the EC90 in assay [3] (24 h, NCI-H1048, KAT2B, read-out: DC90 (the source's name)) stood at 1 nM; in assay [6] (24 h, read-out: DC90 (the source's name)) it was 1.8 nM; in assay [4] (24 h, MOLM-13, KAT2A, read-out: DC90 (the source's name)), 51 nM; in assay [5] (24 h, NCI-H1048, KAT2A, read-out: DC90 (the source's name)), 16 nM. Moreover, the DC50 came to 0.1 nM in assay [3] (NCI-H1048, KAT2B, read-out: DC50); 0.075 nM in assay [6]; 2.2 nM in assay [4] (MOLM-13, KAT2A, read-out: DC50); 1.5 nM in assay [5] (NCI-H1048, KAT2A, read-out: DC50). For the same compound, the GI50 in assay [1] (MOLM-13, comparison table with Ref-1, read-out: Growth GI50) is 60 nM; in assay [2] (NCI-H1048, comparison table with Ref-1, read-out: Growth GI50), 32 nM.
